Test results: PubChem BioAssay AID762 (NMMLSC, 2007)

Target: fMet-Leu-Phe receptor (Homo sapiens) (UniProt P21462)
Experiment: human FPR1 ligand displacement potency – cell-based, flow cytometry, IC50, selectivity assay for FPRL1 ligand SAR project, dose response (AID 762)
Details: FPR-expressing cells, fluorescent ligand binding competition, IC50 of ligand binding inhibition

Sequence of fMet-Leu-Phe receptor (Homo sapiens) (P21462 whole entry, looked up): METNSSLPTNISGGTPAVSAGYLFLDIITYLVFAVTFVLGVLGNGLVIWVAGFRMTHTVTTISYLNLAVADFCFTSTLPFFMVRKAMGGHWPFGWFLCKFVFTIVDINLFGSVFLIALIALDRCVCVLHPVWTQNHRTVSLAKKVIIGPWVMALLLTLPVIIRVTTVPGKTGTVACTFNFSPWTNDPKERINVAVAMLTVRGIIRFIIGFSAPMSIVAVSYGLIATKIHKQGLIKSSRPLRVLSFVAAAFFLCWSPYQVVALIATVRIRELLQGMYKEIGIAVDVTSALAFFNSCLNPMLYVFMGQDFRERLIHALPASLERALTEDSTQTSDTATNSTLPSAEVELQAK

SMILES	IC50 [µM]
COc1ccc(CC(=O)Nc2cc(-c3cn4cccnc4n3)ccc2OC)cc1	> 57.2
O=C(N1CCN(c2nc(-c3ccccc3)c3ccccc3n2)CC1)C(F)(F)F	> 57.5
COc1ccc(-c2cc(C(F)(F)F)nc(N3CCN(c4ccccc4)CC3)n2)cc1OC	> 50
COc1ccc(-c2cn3cccnc3n2)cc1NC(=O)C1CCCC1	> 66.1
COc1ccc(-c2cc(C(F)(F)F)nc(N3CCN(Cc4ccccc4)CC3)n2)cc1OC	> 48.5
COc1ccc(-c2cc(C(F)(F)F)nc(N3CCN(C(c4ccccc4)c4ccccc4)CC3)n2)cc1OC	> 41.6
COc1ccc(-c2cn3cccnc3n2)cc1NC(=O)C1CC1	> 72.1
CCC(=O)Nc1cc(-c2cn3cccnc3n2)ccc1OC	> 75
COc1ccc(-c2cn3cccnc3n2)cc1NC(=O)C(C)C	> 71.6
CCOC(=O)N1CCN(c2nc(-c3ccc(OC)c(OC)c3)cc(C(F)(F)F)n2)CC1	> 50.5
